Converted amounts (≈) assume the structure as drawn.
Experiments:
[1] = test system: panel of ten C. auris strains (AR Bank #381-390); assay: MIC determination, summary over the C. auris panel; type: cell-based, Candida auris; details: Candidozyma auris; against all ten C. auris strains tested (AR Bank #381-390)
Experimental: (§1) The antifungal agent amphotericin B (AmB) was purchased from VWR (Radnor PA, USA). AmB was dissolved in DMSO at a final concentration of 5 mg/mL and was stored at −20° C., protected from light. Candida albicans American Type Culture Collection (ATCC) 10231 (strain A), C. albicans ATCC 64124 (B), and C. albicans ATCC MYA-2876 (C) were obtained from Utah State University. C. albicans ATCC 90819 (D), C. albicans ATCC MYA-2310 (E), C. albicans ATCC MYA-1237 (F), C. albicans ATCC MYA-1003 (G), Candida glabrata ATCC 2001 (H), Candida krusei ATCC 6258 (I), Candida parapsilosis ATCC 22019 (J), Cryptococcus neoformans ATCC MYA-895 (M), Aspergillus terreus ATCC MYA-3633 (N), and Aspergillus flavus ATCC MYA-3631 (0) were obtained from the American Type Culture Collection (ATCC; Manassas, VA, USA). Aspergillus nidulans ATCC 38163 (P) was obtained from University of Kentucky. Clinically derived Aspergillus fumigatus NRRL 163 (Q), A. fumigatus NRRL 5109 (R), and A. fumigatus NRRL 6113 (S) were obtained from Northern Regional Research Laboratory (NRRL). Candida auris 384 (K), C. auris 390 (L), and fungal strains 381-400 (including 10 C. auris (AR Bank #381-390), 3 Candida duobushaemulonii (AR Bank #391, AR Bank #392, and AR Bank #394), 2 Candida haemulonii (AR Bank #393 and AR Bank #395), 1 Kodameae ohmeri (AR Bank #396), 1 C. krusei (AR Bank #397), 1 Candida lusitaniae (AR Bank #398), and 2 Saccharomyces cerevisiae strains (AR Bank #399 and AR Bank #400)) were part of a larger fungal library from the AR Bank maintained by the Centers for Disease Control and Prevention (CDC; Atlanta, GA, USA). Filamentous fungi and yeasts were cultivated at 35° C. in RPMI 1640 medium (with L-glutamine, without sodium bicarbonate, Sigma-Aldrich, St. Louis, MO) buffered to a pH of 7.0 with 0.165 M morpholinepropanesulfonic acid (MOPS) buffer (Sigma-Aldrich). For cytotoxicity assays, HepG2 and the mouse macrophage cell line J774A.1 were obtained from University of Kentucky. The human embryonic kidney cell line, HEK-293, was bought from the ATCC. Mammalian cells were grown in Dulbecco's Modified Eagle's Medium (DMEM) (from VWR) with 10% fetal bovine serum (FBS) (from VWR) and 1% Pen/Strep (from ATCC). Cell lines were cultured at 37° C. with 5% CO2 and passaged by trypsinization with 0.05% trypsin: 0.53 mM EDTA (from Sigma-Aldrich).
(§2) From the actively growing yeast culture, 100 µL were then transferred to 900 μL of RPMI 1640 medium and re-adjusted to achieve OD600 of 0.12 (˜1×10^6 CFU/mL). The cell suspension was further diluted to achieve 1:100 in RPMI 1640 medium.

C. auris AR Bank #383 = assay: MIC determination by in vitro antifungal assay; type: cell-based, Candida auris; details: Candidozyma auris; C. auris AR Bank # 383 (Table 2B); read-out: MIC
Experimental: as §1, §2

C. auris AR Bank #388 = assay: MIC determination by in vitro antifungal assay; type: cell-based, Candida auris; details: Candidozyma auris; C. auris AR Bank # 388 (Table 2B); read-out: MIC
Experimental: as §1, §2

C. auris AR Bank #386 = assay: MIC determination by in vitro antifungal assay; type: cell-based, Candida auris; details: Candidozyma auris; C. auris AR Bank # 386 (Table 2B); read-out: MIC
Experimental: as §1, §2

C. auris AR Bank #382 = assay: MIC determination by in vitro antifungal assay; type: cell-based, Candida auris; details: Candidozyma auris; C. auris AR Bank # 382 (Table 2B); read-out: MIC
Experimental: as §1, §2

C. auris AR Bank #385 = assay: MIC determination by in vitro antifungal assay; type: cell-based, Candida auris; details: Candidozyma auris; C. auris AR Bank # 385 (Table 2B); read-out: MIC
Experimental: as §1, §2

C. auris AR Bank #381 = assay: MIC determination by in vitro antifungal assay; type: cell-based, Candida auris; details: Candidozyma auris; C. auris AR Bank # 381 (Table 2B); read-out: MIC
Experimental: as §1, §2

C. auris AR Bank #387 = assay: MIC determination by in vitro antifungal assay; type: cell-based, Candida auris; details: Candidozyma auris; C. auris AR Bank # 387 (Table 2B); read-out: MIC
Experimental: as §1, §2

C. auris AR Bank #389 = assay: MIC determination by in vitro antifungal assay; type: cell-based, Candida auris; details: Candidozyma auris; C. auris AR Bank # 389 (Table 2B); read-out: MIC
Experimental: as §1, §2

[2] = test system: Candida auris strain AR Bank #384 (K); assay: MIC determination by in vitro antifungal assay; type: cell-based; details: Candidozyma auris, C. auris AR Bank # 384 (K) (Table 2B); read-out: MIC
Experimental: as §1, §2
(§3) Finally, the activity of these monohydrazides was explored against […] non-Candida strains: Cryptococcus neoformans ATCC MYA-895 (M), Aspergillus terreus ATCC MYA-3633 (N), Aspergillus flavus ATCC MYA-3631 (O), Aspergillus nidulans ATCC 38163 (P), Aspergillus fumigatus NRRL 163 (Q), A. fumigatus NRRL 5109 (R), and A. fumigatus NRRL 6113 (S) (Tables 1A and 1B). The double dilution method was used with concentrations ranging from 0.06 to 31.3 j·tg mL^−1 for monohydrazides 1a-9j, and the commercially available positive antifungal control amphotericin B (AmB).

[3] = test system: C. auris strain AR Bank #390 (L); assay: MIC determination by in vitro antifungal assay; type: cell-based, Candida auris; details: Candidozyma auris, C. auris AR Bank # 390 (L) (Table 2B); read-out: MIC
Experimental: as §1, §2, §3

COc1cccc(NNC(=O)c2cccc(F)n2)c1 [Compound 5c]
MIC [1]: 0.12 to 7.8 µg/mL (≈ 0.459 to 29.9 µM)
MIC (C. auris AR Bank #383): 1.95 µg/mL (≈ 7.46 µM)
MIC (C. auris AR Bank #388): 0.98 µg/mL (≈ 3.75 µM)
MIC (C. auris AR Bank #386): 0.98 µg/mL (≈ 3.75 µM)
MIC (C. auris AR Bank #382): 0.49 µg/mL (≈ 1.88 µM)
MIC (C. auris AR Bank #385): 0.98 µg/mL (≈ 3.75 µM)
MIC (C. auris AR Bank #381): 0.98 µg/mL (≈ 3.75 µM)
MIC (C. auris AR Bank #387): 0.49 µg/mL (≈ 1.88 µM)
MIC (C. auris AR Bank #389): 0.98 µg/mL (≈ 3.75 µM)
MIC [2]: 0.49 µg/mL (≈ 1.88 µM)
MIC [3]: 3.9 µg/mL (≈ 14.9 µM)
